A word on the efflux ratio: it is the permeability from basolateral to apical divided by that in the opposite direction, in the common usage.

In data set [1] the test system is ABCG2. Set-up: method as in PMID 18841444. The settings on record: in vitro hematoporphyrin transport, Sf9 membrane vesicles; cited from earlier work.
Data set [2] deals with T1, ABCG2 (Homo sapiens, UniProt Q9UNQ0).
T1 sequence (Q9UNQ0 1-655): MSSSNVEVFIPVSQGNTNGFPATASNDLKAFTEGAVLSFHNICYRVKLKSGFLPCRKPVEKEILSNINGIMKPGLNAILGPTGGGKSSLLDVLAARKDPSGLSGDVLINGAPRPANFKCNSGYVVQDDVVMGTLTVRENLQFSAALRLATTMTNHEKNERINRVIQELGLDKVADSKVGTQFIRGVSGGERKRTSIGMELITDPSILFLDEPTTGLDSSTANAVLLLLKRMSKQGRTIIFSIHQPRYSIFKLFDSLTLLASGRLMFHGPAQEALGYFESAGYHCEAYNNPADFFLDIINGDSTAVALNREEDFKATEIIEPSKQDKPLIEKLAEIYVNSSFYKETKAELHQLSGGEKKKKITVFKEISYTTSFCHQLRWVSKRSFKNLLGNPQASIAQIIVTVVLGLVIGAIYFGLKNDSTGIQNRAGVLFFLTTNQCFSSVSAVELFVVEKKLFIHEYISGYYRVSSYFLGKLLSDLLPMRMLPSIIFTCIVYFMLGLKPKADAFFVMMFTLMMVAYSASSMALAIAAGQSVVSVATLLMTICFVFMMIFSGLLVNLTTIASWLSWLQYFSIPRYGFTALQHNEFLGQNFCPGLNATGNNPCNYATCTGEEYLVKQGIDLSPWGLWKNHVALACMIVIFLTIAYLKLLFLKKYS
Kind of data set: Cellular monolayer transport assay, MDCKII-ABCG2 cells. On the procedure:
(§1) ABCG2- and ABCB1-transduced MDCKII sublines (MDCKII-ABCG2 and MDCKII-ABCB1), which stably express ABCG2 and ABCB1 protein, respectively, were purchased from dr. Alfred Schinkeĺs lab (The Netherlands Cancer Institute, Amsterdam, The Netherlands). These transduced sublines as well as the parental MDCKII cell line (MDCKII-par) were routinely cultured in complete Dulbecco’s modified Eagle’s medium with 10% fetal bovine serum. 100 U/ml penicillin and 100 µg/ml streptomycin were used while growing the cells on the membrane inserts. All cells were routinely cultivated in antibiotic-free medium and periodically tested for mycoplasma contamination. […] Cells from passages 15 to 25 were used in all in vitro studies. Dimethyl sulfoxide was applied as a CDKi solvent in concentrations not exceeding 0.1%.
(§2) MDCKII-ABCG2, MDCKII-ABCB1 or MDCKII-par cells were seeded at a density of 1×10^6 per insert 72 h before experiment. The medium was replaced after 24 and 48 h of cultivation. One hour before the start of the experiment, the cells were washed with prewarmed 1×phospate buffered saline on both the apical and basal sides and Opti-MEM with or without fumitremorgin C or LY335979 was added into both compartments. At time 0, the experiment was started by replacing the medium with fresh Opti-MEM with or without CDKi and fumitremorgin C or LY335979 in the appropriate chamber. Samples were taken every 2 h from the opposite chambers for the duration of the experiment (6 h). Concentration of CDKi was determined via HPLC/MS analysis. Immediately after the experiment, cellular monolayer integrity was examined using fluorescein isothiocyanate labeled dextran (MW = 40 kDa). Dextran leakage was accepted up to 1% per hour.
(§3) HPLC/MS analysis using LC 20A Prominence chromatographic system (Shimadzu, Kyoto, Japan) coupled with LCQ Max advantage mass spectrometer (Thermo Finnigan, San Jose, CA, USA) was used for the quantification of olomoucine II and purvalanol A. The separation was performed on a Hypersil GOLD C18 column (100 × 4.6 mm, particle size 3 µm) protected with an OPTI-GUARD 1 mm guard column C18. The mobile phase flow rate was 0.35 ml/min and the column temperature was maintained at 40°C. The data were processed using Xcalibur 2.0 software (Thermo Finnigan, San Jose, CA, USA).
(§4) The detector was set as follows: spray voltage of 4.5 kV, capillary temperature of 320°C, sheet and auxiliary gas flows of 30 and 12 arbitrary units, respectively. […] The collision energies were 38% and 40% for olomoucine II and IS, respectively. […] The sample stability was evaluated within 94 h.
(§5) The detector was set as follows: spray voltage of 5.5 kV, capillary temperature of 340°C, sheet and auxiliary gas flows of 28 and 13 arbitrary units, respectively. […] The collision energies were 38% and 40% for purvalanol A and IS, respectively. […] The sample stability was evaluated within 94 hours.
(§6) Transport of olomoucine II by ABCG2 and ABCB1 was tested in vitro using transport assays across the polarized monolayers of MDCKII-ABCG2 and MDCKII-ABCB1 cells, respectively. In this method, the transport across the monolayer is greatly accelerated in the basolateral to apical direction, when the compound is a substrate of examined transporter. Based on our previous studies, three olomoucine II concentrations (100 nM, 1 µM and 10 µM) were tested and transport ratios (r; olomoucine II transport in basolateral to apical direction divided by transport in apical to basolateral direction) 2 h after olomoucine II addition were calculated.

The subject of data set [3] is ABCG2. Described as above. Conditions: human. On the procedure: as §1, §2, §3, §4, §5, §6
Data set [4] relates to MDCKII cells. Nature of the data set: Generation of sulfated conjugate in MDCKII cells (HPLC/MS). The format is in vitro ADME, canine. The settings on record: MDCKII-ABCG2, MDCKII-ABCB1 and MDCKII-par; MS analysis. How it is done:
Concentration of CDKi was determined via HPLC/MS analysis. […] Dextran leakage was accepted up to 1% per hour.
In olomoucine II transport experiments, we recorded time-dependent generation of an unknown peak in the fifth minute of HPLC analysis in all three cell lines tested (MDCKII-ABCG2, MDCKII-ABCB1 and MDCKII-par). Based on the MS analysis, the compound was identified as a sulfated conjugate of olomoucine II (Fig. 2). […] On the other hand, the amount of sulfated metabolite increased with time and caused remarkable distortion of the results of parent compound. Therefore, when analyzing the data of unconjugated olomoucine II, the time interval was shortened to 2 hours in order to reduce the misrepresenting effect of sulfated olomoucine II. Considering ionic nature of sulfated olomoucine II, it is obvious that this compound cannot escape from the cells via passive diffusion but must utilize special transport system(s). Relative quantification of olomoucine II sulfate allowed us to describe its pharmacokinetic behavior in all MDCKII cell sublines.
Figure 2 Mass spectra of an unknown peak eluted in the fifth minute of HPLC analysis of olomoucine II transport. (A) spectrum in positive mode, (B) MS^2 in positive mode, (C) negative mode, (D) MS^2 in negative mode. […]

Data set [5] relates to ABCG2. Conditions: cited from earlier work; for inhibition of ABCG2: in vitro and in situ levels.
Data set [6] relates to placental ABCB1/ABCG2.
The nature of data set [7]: Cellular monolayer transport assay, parental MDCKII-par cells. Conditions: dog, MDCK. On the procedure:
as §1, §2, §3, §4, §5, §6

In data set [8] the test system is MDCKII-par cells. The data set is described as above. The settings on record: olomoucine II 100 nM and 1 µM, 2 h, 1 µM LY335979 (endogenous canine Abcb1 inhibitor). How it is done: as §1, §2, §3, §4, §5, §6
Data set [9] concerns ABCB1. Nature of the data set: Cellular monolayer transport assay, MDCKII-ABCB1 cells. The settings on record: human. How it is done:
as §1, §2, §3, §4, §5, §6

For data set [10], the target named is ABCB1 (Homo sapiens, UniProt P08183). The data set is described as above. How it is done:
as §1, §2, §3, §4, §5, §6

The subject of data set [11] is ABCG2-expressing cell lines. Conditions: combination method of Chou-Talalay; cited from earlier work.
For data set [12], the system named is multidrug resistance associated protein 1 (ABCC1). More on the design: method as in PMID 20699410. The settings on record: cited from earlier work.
The test system of data set [13] is multidrug resistance associated protein 2 (ABCC2). More on the design: method as in PMID 20699410. Conditions: cited from earlier work.
Data set [14] deals with ABCB1. Conditions: bovine brain microvessel endothelial cell monolayers; cited from earlier work.
Data set [15] relates to ABCG2. The settings on record: cited from earlier work.

ABCB1 (Homo sapiens, UniProt P08183), sequence (P08183 whole entry): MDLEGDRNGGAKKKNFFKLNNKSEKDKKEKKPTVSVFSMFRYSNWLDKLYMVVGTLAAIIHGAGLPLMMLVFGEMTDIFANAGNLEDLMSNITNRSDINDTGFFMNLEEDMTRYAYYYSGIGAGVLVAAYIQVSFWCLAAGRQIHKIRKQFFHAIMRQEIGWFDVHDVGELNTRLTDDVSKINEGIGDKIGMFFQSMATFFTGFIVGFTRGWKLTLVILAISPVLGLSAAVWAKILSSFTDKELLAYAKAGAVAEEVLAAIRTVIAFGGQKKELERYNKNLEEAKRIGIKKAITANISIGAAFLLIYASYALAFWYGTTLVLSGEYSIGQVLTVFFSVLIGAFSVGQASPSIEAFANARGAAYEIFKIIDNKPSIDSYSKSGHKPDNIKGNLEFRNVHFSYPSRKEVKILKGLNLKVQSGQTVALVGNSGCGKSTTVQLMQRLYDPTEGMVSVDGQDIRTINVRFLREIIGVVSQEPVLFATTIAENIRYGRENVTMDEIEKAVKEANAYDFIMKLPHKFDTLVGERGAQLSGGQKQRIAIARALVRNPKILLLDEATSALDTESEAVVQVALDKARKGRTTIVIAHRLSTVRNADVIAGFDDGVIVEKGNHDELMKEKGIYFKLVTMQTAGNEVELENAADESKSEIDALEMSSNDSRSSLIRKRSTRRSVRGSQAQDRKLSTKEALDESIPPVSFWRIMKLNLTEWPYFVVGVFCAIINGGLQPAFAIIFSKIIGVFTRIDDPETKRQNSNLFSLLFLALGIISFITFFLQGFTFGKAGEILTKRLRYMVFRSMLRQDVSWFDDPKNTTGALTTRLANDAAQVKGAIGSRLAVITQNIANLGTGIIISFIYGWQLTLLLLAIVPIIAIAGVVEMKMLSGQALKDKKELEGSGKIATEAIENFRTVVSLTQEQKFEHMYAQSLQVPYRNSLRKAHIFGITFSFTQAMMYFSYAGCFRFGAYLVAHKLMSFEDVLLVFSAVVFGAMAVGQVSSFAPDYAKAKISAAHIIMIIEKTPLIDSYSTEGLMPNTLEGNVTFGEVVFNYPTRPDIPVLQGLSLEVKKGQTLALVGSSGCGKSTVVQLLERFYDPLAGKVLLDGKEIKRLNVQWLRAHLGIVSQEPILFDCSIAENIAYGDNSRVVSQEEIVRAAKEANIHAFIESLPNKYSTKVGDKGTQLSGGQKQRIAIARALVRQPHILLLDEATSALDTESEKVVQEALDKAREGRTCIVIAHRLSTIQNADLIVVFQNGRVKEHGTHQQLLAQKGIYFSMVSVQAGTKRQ

Take `COc1cc2ncnc(Nc3cccc(O)c3)c2cc1OC` [WHI-P180]: the ABCG2 inhibition result in data set [1] is “ABCG2 inhibition”.
Take `CC[C@H](CO)Nc1nc(NCc2ccccc2O)c2ncn(C(C)C)c2n1` [olomoucine II]: the efflux ratio at 2 h, 100 nM in data set [2] (human) stood at 2.27; in [3] (with fumitremorgin C 5 µM), 1.32; in [7], 1.45; in [9] (MDCK-MDR1, with LY335979 1 µM) it was 1.48; in data set [10] (human, MDCK-MDR1), 6.45. The efflux ratio at 2 h, 10 µM came out at 1.29 in data set [2] (human); 1.64 in data set [7]; 2.51 in [10] (human, MDCK-MDR1). In addition, in [2] (in vitro, MDCKII-ABCG2 monolayers), the ABCG2 substrate status entry was “dual substrate of ABCG2 and ABCB1”. Moreover, the “transport ratio r (basolateral to apical divided by apical to basolateral)” value in [2] (olomoucine II 1 µM, 2 h, without inhibitor) is 2.31. The efflux ratio at 2 h, 1 µM amounted to 1.21 in data set [3] (with fumitremorgin C 5 µM); 1.39 in data set [7]; 1.83 in [9] (MDCK-MDR1, with LY335979 1 µM); 6.83 in data set [10] (human, MDCK-MDR1). In addition, in data set [4], the “sulfatation in MDCKII cells” value is on record as “time-dependent generation of a metabolite”. In addition, in data set [5], the “ABCG2 inhibitory potency compared with fumitremorgin C” value is listed as “comparable or even higher potency than fumitremorgin C”. The “inhibition of ABCG2” value in [5] was “inhibition of ABCG2”. The “transport by placental ABCB1/ABCG2 in perfused rat placenta” value in data set [6] is reported as “actively pumped from fetus to mother”. The “change in r values after adding LY335979” value in data set [8] is listed as “did not observe statistically significant changes”. Further, the “asymmetry in transport in MDCKII-ABCB1 cells in comparison with ABCG2 transduced cells” value in [10] (100 nM and 1 µM, 2 h) is listed as “approximately 3 fold”. Also, the ABCB1 substrate status result in [10] (in vitro, MDCKII-ABCB1 monolayers) is on record as “substrate of ABCB1”. The “potentiation of the antiproliferative effect of mitoxantrone” value in data set [11] was “synergistically potentiate”.
Take `CC(C)[C@H](CO)Nc1nc(Nc2cccc(Cl)c2)c2ncn(C(C)C)c2n1` [purvalanol A]: in data set [2] (human), the ABCG2 substrate status result is on record as “not an ABCG2 substrate”; the efflux ratio at 6 h, 1 µM turned out to be 1.28; the efflux ratio at 6 h, 10 µM stood at 1.23. For the same molecule, in [3], the efflux ratio at 6 h, 1 µM stood at 1.33 and the efflux ratio at 6 h, 10 µM is 1.26. Moreover, the “sulfatation in MDCKII cells” value in data set [4] is on record as “not subjected to sulfatation”. Besides, in data set [5], the “ABCG2 inhibitory potency compared with fumitremorgin C” value is on record as “comparable or even higher potency than fumitremorgin C” and the “inhibition of ABCG2” value is “inhibition of ABCG2”. The “transport by placental ABCB1/ABCG2 in perfused rat placenta” value in data set [6] is reported as “showed no interactions with these transporters”. In data set [7], the efflux ratio at 6 h, 1 µM stood at 1.14 and the efflux ratio at 6 h, 10 µM is 1.05. In [9] (MDCK-MDR1), the efflux ratio at 6 h, 1 µM worked out at 1.2 and the efflux ratio at 6 h, 10 µM is 1.18. For the same molecule, in [10] (human, MDCK-MDR1), the ABCB1 substrate status entry is “not an ABCB1 substrate”; the efflux ratio at 6 h, 1 µM was found to be 1.36; the efflux ratio at 6 h, 10 µM worked out at 1.26. The “potentiation of the antiproliferative effect of mitoxantrone” value in [11] is “synergistically potentiate”. In addition, the ABCG2 inhibition entry in [1] is “ABCG2 inhibition”.
For `CC[C@H](CO)Nc1nc(NCc2ccccc2)c2ncn(C(C)C)c2n1` [roscovitine], the “transport by ABCC1” value in [12] is on record as “not transported”. Further, in [13], the “transport by ABCC2” value is on record as “not transported”. The “inhibition of ABCB1” value in [14] is recorded as “significant inhibition of ABCB1”. The “transport by ABCG2” value in [15] was “not transported”.

The values are drawn from paper PMC3792958, “Olomoucine II, but Not Purvalanol A, Is Transported by Breast Cancer Resistance Protein (ABCG2) and P-Glycoprotein (ABCB1)” (PLoS ONE, 2013).
